Patent US11331368B2, “Angiotensin receptor agonists and uses thereof” (Monash University, priority 2017, dated 2022)
Entries after “also recorded” stand apart in the source; their conditions may differ. Read-outs that look alike come from different tables or passages of the source.

Assays:
human AT1R = molecular target: T1, human AT1R (Homo sapiens, UniProt P30556); assay: Competition radioligand binding (125I-Sar1-Ile8-AngII) in AT1R-transfected HEK-293 cells
T1 construct: expressed in transfected cells
T1 sequence (P30556 1-359): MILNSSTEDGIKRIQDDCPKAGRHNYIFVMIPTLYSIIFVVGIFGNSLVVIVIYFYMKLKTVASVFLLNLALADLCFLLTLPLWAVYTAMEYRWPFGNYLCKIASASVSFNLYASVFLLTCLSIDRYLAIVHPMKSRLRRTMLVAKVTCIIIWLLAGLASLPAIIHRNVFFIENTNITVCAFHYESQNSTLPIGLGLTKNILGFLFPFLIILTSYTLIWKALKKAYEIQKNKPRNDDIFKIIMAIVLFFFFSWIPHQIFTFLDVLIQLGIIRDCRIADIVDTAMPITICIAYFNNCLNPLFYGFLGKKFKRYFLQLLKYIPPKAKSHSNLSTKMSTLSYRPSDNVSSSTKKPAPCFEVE
Experimental: (§3) This will lead to the generation of IC50 values that determine the relative ability of test compounds to interact with both Angiotensin receptors.
(§4) Cells were grown to approximately 80% confluence before being re-plated into 48 well plates at 1×10^5 cells/well and grown for 48 hours at 37° C. for a whole cell competition binding assay. [125I]-Sar1Ile8Ang II at 50,000 cpm, incubated for 45 minutes at 37° C., in the absence or presence of unlabeled ligands, prepared in binding buffer (DMEM, 0.1% BSA), were used in the competition assays at concentrations ranging from 1 μM to 10 μM. For each experiment, each ligand concentration was tested in duplicate or triplicate, and each experiment was repeated at least 3 separate times. […] The ability of each ligand to inhibit specific binding of [125I]-Sar1Ile8Ang II was measured on a gamma counter with all counts corrected for NSB.

mouse aortae = assay: Vasorelaxation of pre-contracted mouse aortae; details: 0.1-1000 nM, pre-contracted with U46619
Excerpt: FIG. 17: The selective AT2R ligands, β-Pro^7-Ang III and D-Arg^2-β-Pro^7-Ang III, are functional agonists in vasculature.

human AT2R = molecular target: T2, human AT2R (Homo sapiens, UniProt P50052); assay: Competition radioligand binding (125I-Sar1-Ile8-AngII) in AT2R-transfected HEK-293 cells; details: for binding at AT2R (displacement of 125I-Sar1-Ile8-AngII), in words: transfected HEK-293 cells
T2 construct: expressed in transfected cells
T2 sequence (P50052 1-363): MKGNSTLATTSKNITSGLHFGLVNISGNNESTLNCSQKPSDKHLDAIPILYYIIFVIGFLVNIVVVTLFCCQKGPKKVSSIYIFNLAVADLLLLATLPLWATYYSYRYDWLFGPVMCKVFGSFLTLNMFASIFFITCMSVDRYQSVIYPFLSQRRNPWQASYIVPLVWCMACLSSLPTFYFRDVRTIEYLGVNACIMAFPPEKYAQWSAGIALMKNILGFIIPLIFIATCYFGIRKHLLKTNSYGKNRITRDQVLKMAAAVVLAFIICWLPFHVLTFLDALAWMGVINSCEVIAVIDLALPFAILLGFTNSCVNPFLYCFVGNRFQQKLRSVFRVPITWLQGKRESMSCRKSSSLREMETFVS
Experimental: as §3, §4

[1] = test system: male FVB/N mice on high salt diet, liver; assay: High salt (5%) diet intervention model, liver; type: in vivo, mouse; details: weeks 5-8; peptides 75 pmol/kg/min s.c.; Cand 2 mg/kg/day, captopril 3 mg/kg/day
Experimental: (§1) C) In the intervention (or reversal) model, male FVB/N mice were treated with selective AT2Rs agonists after the establishment of cardiovascular disease using a high salt diet, in order to reverse cardiovascular pathologies. In some experiments, the ACE inhibitor captopril (dose) or the ARB candesartan cilexetil (dose) were given for 4 weeks in drinking water. Organs examined included heart, kidney and liver and these were compared to either untreated mice or high salt-fed mice that were treated with saline.
(§2) Mice were placed on either a normal rodent diet (0.35% NaCl) which acted as control or a high salt diet (5% sodium in food chow) for 8 weeks. After 4 weeks, mice were also treated subcutaneously (via osmotic mini-pump) with either saline or an AT2R agonist (75 pmol/kg/min subcutaneously) for 4 weeks. Mice continued to be fed a high salt diet whilst receiving these treatments.
Liver sections used either picrosirius red staining or Masson's trichome staining as described above. Higher concentrations of picrosirius red were often used under polarized light microscopy. The liver was removed and sectioned with half of the liver placed in 10% formalin and the rest frozen in liquid nitrogen before being stored in ˜80° C. freezer for future use. Formalin fixed, paraffin embedded livers were sectioned at thickness of 4 μm and were stained with Masson's trichrome according to standard procedures for analysis of liver fibrosis. […] Sections were re-fixed in Bouin's solution for 1 hour at 56° C. to improve staining quality then rinsed in running tap water for 5-10 minutes to remove yellow colour. Following this, sections were stained in Weigert's iron hematoxylin working solution for 10 minutes. Rinsed in running warm tap water for 10 minutes. Washed in distilled water. Stained in Biebrich scarlet-acid fuchsin solution for 10-15 minutes.
Washed in distilled water. Differentiated in phosphomolybdic-phosphotungstic acid solution for 10-15 minutes or until collagen was no longer red. Sections were transferred directly (without rinse) to aniline blue solution and stained for 5-10 minutes. Rinsed briefly in distilled water and differentiated in 1% acetic acid solution for 2-5 minutes. Washed in distilled water. […] Mounted with DPX mounting medium. Quantification of liver fibrosis was performed using images captured with the Aperio scanner (Monash Histology Platform, Monash University), with ×5 magnification. Each liver section had 5 different fields of view photographed at this magnification. Percentage of interstitial and perivascular collagen was analysed and quantified using ImageJ 1.48 software (Java, NIH), and the percentage from 5 random fields of view were averaged for final percentage of collagen for that particular animal. All analysis of collagen expression was conducted in a blinded fashion.

[2] = test system: male FVB/N mice on high salt diet, heart; assay: High salt (5%) diet intervention model, heart; type: in vivo, mouse
Experimental: as §1
A high-salt diet (5% salt) model is a clinically relevant and disease-reversal model which can replicate the high salt intake by humans which is currently a growing problem in the developed countries. High salt intake induces changes in the cardiovascular system and induces remodelling and fibrosis in the heart, kidney and liver.
as §2
All mice which underwent surgery were anaesthetized with Isoflurane (Isorrane) (5% induction and 2.5% maintenance) and an incision made in the midscapular region through which osmotic minipumps (Alzet model 2004, Alza Corp) were inserted for subcutaneous drug administration. The incision area was sutured with 6/0 DY silk (Dynek Pty Ltd) and antibiotic powder applied (Cicatrin, Pfizer) followed by intramuscular injection of the analgesic Cartrophen (0.1 ml of a 1.5 mg/ml stock solution; Biopharm Australia). Systolic blood pressure (SBP) was measured using non-invasive tail-cuff plethysmography apparatus (MC4000 Blood Pressure Analysis System, Hatteras Instrument Inc) before drug treatment (week 0), and then fortnightly. At the end of the 8 week treatment period mice were weighed before being killed by overdose of isoflurane inhalation and cervical dislocation.
To measure collagen deposition, frozen sections of heart, kidney or aorta (all 5 μm thickness) were air dried for 10 minutes and were brought through 3 times xylene (2 minutes each), and 3 times absolute alcohol washes before being rinsed in tap H2O for 30 seconds. Staining with an optimal concentration of picrosirius red (in this instance 0.05% picrosirius red diluted in saturated picric acid) was performed and left for an hour. Sections were then rinsed in water and differentiated in 0.01M HCl for 2 minutes, followed by dehydration via 3 times absolute alcohol washes. Then, slides were brought through 3 times xylene washes before being cover slipped according to standard histological techniques using DPX as the mounting medium. Images were taken under ×20 magnification, using bright field (Olympus, BX51) and circularized polarized light microscopy (DM IRB, Leica) while percentage of positive interstitial collagen staining per total field of view was quantified using ImageJ 1.46 software (Java, NIH), and averaged out from a total of eight views as the final percentage collagen content in a particular animal.
Immunostaining was performed on 5 μm thick transverse frozen heart sections. These sections were air dried and fixed in ice-cold acetone for approximately 15 minutes before washing with 0.01M PBS buffer (3×10 minutes). Sections were then incubated with 10% goat serum in 0.01M PBS for 30 minutes to reduce non-specific binding. If the primary antibody is raised in goat, this pre-blocked medium is substituted with 5% BSA in PBS and Triton-X. Next, blocking buffers were removed and the primary antibody to respective markers were applied overnight at room temperature based on the following dilution and origin of the antibodies: α-SMA (1:500, Abcam), Vimentin (1:500, Santa Cruz), P-IκBα (1:200, Cell Signalling), F4/80 macrophage (1:100, Serotec). […]

[3] = test system: human cardiac fibroblasts; assay: AT1R and AT2R mRNA expression in human cardiac fibroblasts (qPCR); type: cell-based; details: 5 ng/ml for 72 hours
Experimental: FIG. 2: TGF-β1 differentially affects the mRNA expression of AT1R and AT2R in human cardiac fibroblasts. Quantitative qPCR data showing that both AT1R and AT2R are expressed in human cardiac fibroblasts. TGF-β1 (5 ng/ml for 72 hours) increased AT2R mRNA expression but not AT1R mRNA expression. Quantitative values were obtained from the threshold cycle (Ct) number. Target gene expression level was normalized against beta-actin mRNA expression for each sample and data was expressed relative to the control. Data expressed as mean±sem relative to untreated HCFs; *P<0.05 versus untreated control (t-test).

[4] = test system: human cardiac fibroblasts; assay: TGF-β1-induced collagen production in human cardiac fibroblasts (Western blot); type: cell-based; details: co-treated with TGF-β1 for 3 days, increasing concentrations up to 1 μM
Experimental: D) Human cardiac fibroblasts (HCFs) were treated with TGFβ1 to induce a pro-fibrotic phenotype state in cell culture, exemplified by increased collagen-1 production, measured by Western blot. HCFs were treated with TGFβ1 alone, or in the presence of an AT2R agonist for 3 days, and the ability of AT2R agonists to inhibit TGFβ1-induced collagen-1 production was measured.
Commercially available human cardiac fibroblasts (HCF, Catalog #6300, Sciencell, Calif., USA) were grown in T75 flask maintained in an incubator at 37° C., 5% CO2. Complete media composition: M199 media (#11150-059, life technologies)+10% FBS (#10437-028, life technologies)+1% Fibroblast Growth Supplement-2 (#2382, ScienCell)+1% penicillin/streptomycin 10,000 U/ml antibiotics (#15140-122, Life Technologies). Fresh complete media was replenished every alternate day until culture reached 70% confluence in which media is replenished daily until it reached approximately 90% confluence in order to passage/subculture. To subculture, media was discarded and culture was rinsed with warm PBS. After which, culture was detached using warm 0.05% Trypsin+EDTA with gentle swirling of flask to make sure cells were not adherent to surface of flask. Trypsin was then neutralized with complete media and suspension was then transferred into a new falcon tube and centrifuged at 1000 rpm for 5 minutes. Supernatant was discarded and pellet of cells were resuspended with 5 ml of complete media, followed by cell counting. For subculturing/passaging, 1 million HCFs are placed into a T75 flask. For Picrosirius Red (PSR) staining or immunofluorescence experiments, 100 k cells were loaded per well in a 24 well plate lined with round coverslips. […]
Once treatment is complete, cells were washed with warm PBS and detached using Accutase (A6964, Sigma), with 5 minutes incubation at 37° C. […] The supernatant (˜20 ul) was transferred to a new tube and protein concentrations were measured using Biorad Lowry protein assay. Protein quantification of respective markers were performed via standard western blot analysis. […]

[5] = test system: human cardiac fibroblasts; assay: Pro-fibrotic effect of Ang II in human cardiac fibroblasts; type: cell-based
Experimental: Commercially available human cardiac fibroblasts (HCF, Catalog #6300, Sciencell, Calif., USA) were grown in T75 flask maintained in an incubator at 37° C., 5% CO2. Complete media composition: M199 media (#11150-059, life technologies)+10% FBS (#10437-028, life technologies)+1% Fibroblast Growth Supplement-2 (#2382, ScienCell)+1% penicillin/streptomycin 10,000 U/ml antibiotics (#15140-122, Life Technologies). Fresh complete media was replenished every alternate day until culture reached 70% confluence in which media is replenished daily until it reached approximately 90% confluence in order to passage/subculture. To subculture, media was discarded and culture was rinsed with warm PBS. After which, culture was detached using warm 0.05% Trypsin+EDTA with gentle swirling of flask to make sure cells were not adherent to surface of flask. Trypsin was then neutralized with complete media and suspension was then transferred into a new falcon tube and centrifuged at 1000 rpm for 5 minutes. […]

## D-Arg-Val-Tyr-Ile-His-β-Pro-Phe [D-Arg β-Pro-Ang III]
Human AT1R; listed as D-Arg^2-β-Pro^7-Ang III
  binding at AT1R (displacement of 125I-Sar1-Ile8-AngII), in words: bind poorly; also recorded: did not substantially displace
Mouse aortae
  vasorelaxation of pre-contracted aortae: concentration-dependent vasorelaxation
Human AT2R; AT2R over AT1R, Table 3
  Fold AT2R selectivity: >300,000 fold
Human AT2R; approximate or conservatively estimated
  AT2R/AT1R selectivity ratio: > 300,000 fold
Human AT2R
  binding at AT2R (displacement of 125I-Sar1-Ile8-AngII), in words: high affinity
[1]
  liver fibrosis (picrosirius red, polarized light): normalised liver fibrosis
  liver steatosis (Oil Red O): significantly reduced steatosis
[2]; 75 pmol/kg/min s.c., weeks 5-8
  myofibroblast differentiation in heart (α-SMA): fully reversed the high salt-induced myofibroblast differentiation
[2]; weeks 5-8 of high salt diet, peptides 75 pmol/kg/min s.c. mini-pump, Cand 2 mg/kg/day, captopril 3 mg/kg/day in drinking water
  cardiac fibrosis (picrosirius red): reversed established cardiac fibrosis

## TGF-β1: pro-fibrotic agent (fibrogenic cytokine) used to stimulate human cardiac fibroblasts
[3]
  AT1R mRNA expression: not
  AT2R mRNA expression: increased

## CC[C@H](C)[C@H](NC(=O)[C@H](Cc1ccc(O)cc1)NC(=O)[C@@H](NC(=O)C[C@H](CCCNC(=N)N)NC(=O)[C@@H](N)CC(=O)O)C(C)C)C(=O)N[C@@H](Cc1c[nH]cn1)C(=O)N1CCC[C@H]1C(=O)N[C@@H](Cc1ccccc1)C(=O)O [βArg-Ang II, Asp-β-Arg-Val-Tyr-Ile-His-Pro-Phe]
[4]
  TGF-β1-induced collagen production: inhibited the TGF-β1-mediated pro-fibrotic phenotype

## Ang II [reference compound]
Human AT1R
  binding at AT1R (displacement of 125I-Sar1-Ile8-AngII), in words: readily binds
[5]; HCFs treated with Ang II
  myofibroblast differentiation (α-SMA expression): caused myofibroblast differentiation
[5]; varying concentrations for 3 days, Western blot
  protein expression of collagen: dose-dependent increases
Human AT2R
  binding at AT2R (displacement of 125I-Sar1-Ile8-AngII), in words: readily binds
